Values of other authors, collected in US11517526B2, “Stabilised hypochlorous solutions and their medical cosmetic uses” (Clinical Health Technologies Ltd, priority 2019, dated 2022).

Legend:
[1] = natural state, unless stabilised

- half-life [1]: 48 h
SMILES: OCl [hypochlorous acid (HOCl), hypochlorous acid]
- effectiveness as an antimicrobial relative to hypochlorite (OCl−) (microbes): 80-100 times
